According to patent US20230067644A1, “DRG-MDM2-3 FOR USE AS A NOVEL MOUSE DOUBLE MINUTE 2 (MDM2) INHIBITOR” (BAHCESEHIR UNIVERSITESI, priority 2020, published 2023):
Like-named read-outs stand apart in the source and are kept apart here.

Columns and labels:
MDM2 protein = MDM2 protein (Homo sapiens, UniProt Q00987); details: background statement; cited from earlier work
MDA-MB231 cell lines = assay: MTT cell viability assay (IC50); type: cell-based; details: Homo sapiens, MDA-MB-231, single dose of treatment, 10^-9 to 10^-4 M, absorbance 570 nm
Protocol: (§1) HCT 116 colon cancer and MDA-MB231 breast cancer cell lines are used in cell culture experiments.
Cells were treated with high-glucose DMEM medium (Biosera) supplemented with 10% FBS (Gibco) and 1× penicillin/streptomycin (Multicell). The assay was designed to contain 10,000 cells for each well of 24-well cell culture plates before being treated with inhibitors.
Compound of formula I was dissolved with DMSO as 20 mM stock. 24 hours later, the solution was diluted in DMEM with 10% FBS and final concentration of vehicle DMSO was 0.5% at maximum. Therefore, the vehicle group included 0.5% DMSO concentration in experiments. Intensive cultivation of cells causes a decrease in proliferation capacity.
The MTT cell viability assay was used to detect values of half-maximal inhibitory concentration (IC50). Different concentrations of compound of formula I ranging between 10^−9 to 10^−4 M were tested on MDA-MB231 cell lines with single dose of treatment. 570 nm absorbance values were recorded and IC50 values were calculated by dose response—inhibition curves and nonlinear regression analysis on Graphpad Prism 8 software.

HCT-116 cells [1] = assay: Microscopic evaluation of cells (proliferation, apoptotic morphology); type: cell-based
Protocol: Cells were photographed and observed under microscope for three days.
As a result, cell viability decreased by 40% at the end of the first day and reached 60% at the end of the third day. Any cell proliferation change and apoptotic cell morphology were not observed in the untreated and vehicle groups. Moreover, differences in cell morphology were also observed. […] Upon treatment with the compound of formula I according to present invention with 100 μM concentration, cells having the morphology of apoptotic cells were observed starting from the 3rd hour.

HCT-116 cells [2] = assay: MTT cell proliferation assay; type: cell-based; details: Homo sapiens, HCT-116, 100 μM, read-out: cell viability decreased
Protocol: as §1
For proliferation inhibition analysis, cells were seeded in 24 well plates at 1×10^4 cells/well cells overnight without drug treatment. During the cell proliferation experiments, we performed five days of treatment in each cell line and repeated the experiments three times to check each experiment. No significant difference in cell viability was observed after the third day. Therefore, cells with different drug concentrations were treated for two days. After 48 hours, MTT was applied to the cells and incubated at 37° C. for 4 hours, formazan was solubilized with DMSO (Sigma-Aldrich, St. Louis, USA) and absorbance was measured at 570 nm.
Molecule concentration was 100 μM, the lower concentrations were not shown. Vehicle represents the groups treated with only %0,5 DMSO and Untreated represents no molecule treated group. Molecule responses were evaluated by cell viability which is obtained by spectrophotometric analysis of cells upon MTT treatment at 12 h, 24 h, 48 h and 72 h. […] Statistical significance in graphs was determined by comparing each treatment group with DMSO control using ANOVA testing and significance is considered as p<0.001 (FIG. 2).
As a result, cell viability decreased by 40% at the end of the first day and reached 60% at the end of the third day. […]

Sequence of MDM2 protein (Q00987 whole entry, species assumed): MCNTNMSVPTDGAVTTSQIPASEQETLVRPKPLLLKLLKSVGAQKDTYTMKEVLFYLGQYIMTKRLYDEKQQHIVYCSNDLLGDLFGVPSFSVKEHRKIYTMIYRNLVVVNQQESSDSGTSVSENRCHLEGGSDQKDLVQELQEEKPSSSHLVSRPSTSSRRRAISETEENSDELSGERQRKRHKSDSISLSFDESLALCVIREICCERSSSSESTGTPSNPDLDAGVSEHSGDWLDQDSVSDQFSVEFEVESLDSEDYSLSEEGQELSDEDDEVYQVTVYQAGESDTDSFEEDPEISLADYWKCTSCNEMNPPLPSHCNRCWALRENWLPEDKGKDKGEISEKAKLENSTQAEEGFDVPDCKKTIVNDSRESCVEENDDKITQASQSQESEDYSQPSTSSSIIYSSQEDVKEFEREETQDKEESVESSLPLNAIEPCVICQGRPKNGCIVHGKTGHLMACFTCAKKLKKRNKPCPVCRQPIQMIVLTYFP

IC50 (MDA-MB231 cell lines) [µM]	Compound	binding affinity to MDM2 protein relative to a natural p53 peptide (MDM2 protein) [fold]	hour from which cells having the morphology of apoptotic cells were observed (HCT-116 cells [1]; 100 μM concentration) [hour]	apoptotic activity (onset, microscopy) (HCT-116 cells [1]; FIG. 3)	proliferation and cell structures under microscope (HCT-116 cells [1]; observed for three days, vs vehicle and untreated, FIG. 3)	cytotoxicity at 100 µM (HCT-116 cells [2]; at the end of the first day) [%]	cytotoxicity at 100 µM (HCT-116 cells [2]; at the end of the third day) [%]
–	MI-319	500	–	–	–	–	–
41	O=C(CCc1ccccc1Cl)NC(CC1CNc2ccccc21)C(=O)O (stereo not shown) [compound of formula I]	–	3	clear apoptotic activity from the twelfth hour	reduced proliferation and showed apoptotic cell structures	40	60
